Source: ChEMBL document CHEMBL6182943, “Identification of 4'-Thiouridine as an Orally Available Antiviral Agent Targeting Both RdRp and NiRAN Functions of SARS-CoV-2 Nsp12” (J Med Chem, 2025)

Experiments:
[1] = Selectivity index, ratio of CC50 for cytotoxicity against HEK293T cells to EC50 for antiviral activity against Zaire Ebola virus infected in HEK293T cells transfected with viral replication protein and Renilla luciferase; type: toxicity, cell-based; conditions: human, read-out: Ratio CC50/EC50
Zaire ebolavirus = experiment: Antiviral activity against Zaire Ebola virus infected in HEK293T cells transfected with viral replication protein and Renilla luciferase pre-infected for 4 hrs followed by compound addition and measured after 48 hrs by Dual-luciferase reporter assay; type: functional, organism-based; conditions: HEK-293T
SARS-CoV-2 [2] = experiment: (§1) Antiviral activity against SARS-CoV-2 Gamma (hCoV-19/Korea95637/KDCA/2021) infected in human Calu-3 cells assessed as reduction in number of spike-protein expressing cells pre-infected for 30 mins followed by compound addition and measured 48 hrs post-infection by DAPI staining based immunofluorescence analysis relative to control; type: functional, organism-based; conditions: Severe acute respiratory syndrome coronavirus 2, Gamma (hCoV-19/Korea95637/KDCA/2021)
[3] = system: Middle East respiratory syndrome-related coronavirus; experiment: Antiviral activity against MERS-CoV KOR/KNIH/002_05_2015 infected in human Huh-7 cells assessed as inhibition of virus-induced cytopathic effect measured 2 to 7 days post infection by MTT-based cell viability assay; type: functional, organism-based; conditions: KOR/KNIH/002_05_2015, Huh-7
SARS-CoV-2 [4] = experiment: as §1, with “Omicron (hCoV-19/Korea/KDCA447321/2021)” for “Gamma (hCoV-19/Korea95637/KDCA/2021)”; type: functional, organism-based; conditions: Severe acute respiratory syndrome coronavirus 2, Omicron (hCoV-19/Korea/KDCA447321/2021)
Human coronavirus NL63 = experiment: Antiviral activity against HCoV-NL63 infected in LLC-MK2 cells assessed as inhibition of virus-induced cytopathic effect measured 2 to 7 days post infection by MTT-based cell viability assay; type: functional, organism-based
[5] = Cytotoxicity against human Huh-7 cells assessed as reduction in cell viability by MTT-based cell viability assay; type: toxicity
SARS-CoV-2 [6] = experiment: as §1, with “Wuhan-like (hCoV-19/Korea/KCDC06/2020)” for “Gamma (hCoV-19/Korea95637/KDCA/2021)”; type: functional, organism-based; conditions: Severe acute respiratory syndrome coronavirus 2, Wuhan-like (hCoV-19/Korea/KCDC06/2020)
[7] = Cytotoxicity against human Calu-3 cells assessed as reduction in cell viability incubated for 48 hrs by MTT assay; type: toxicity, cell-based
SARS-CoV-2 [8] = experiment: Antiviral activity against SARS-CoV-2 infected in african green monkey Vero cells assessed as reduction in number of spike-protein expressing cells pre-infected for 30 mins followed by compound addition and measured 48 hrs post-infection by DAPI staining based immunofluorescence analysis; type: functional, organism-based; conditions: Severe acute respiratory syndrome coronavirus 2, Vero
[9] = Cytotoxicity against African green monkey Vero cells assessed as reduction in cell viability incubated for 48 hrs by MTT assay; type: toxicity, cell-based; conditions: chlorocebus sabaeus
SARS-CoV-2 [10] = experiment: as §1, with “Delta (hCoV-19/Korea/KDCA119861/2021)” for “Gamma (hCoV-19/Korea95637/KDCA/2021)”; type: functional, organism-based; conditions: Severe acute respiratory syndrome coronavirus 2, Delta (hCoV-19/Korea/KDCA119861/2021)
[11] = Selectivity index, ratio of CC50 for cytotoxicity against human Calu-3 cells to EC50 for antiviral activity against SARS-CoV-2 Delta (hCoV-19/Korea/KDCA119861/2021) infected in human Calu-3 cells assessed as reduction in number of spike-protein expressing cells; type: toxicity, cell-based; conditions: read-out: Ratio CC50/EC50
[12] = Selectivity index, ratio of CC50 for cytotoxicity against human Calu-3 cells to EC50 for antiviral activity against SARS-CoV-2 Wuhan-like (hCoV-19/Korea/KCDC06/2020) infected in human Calu-3 cells assessed as reduction in number of spike-protein expressing cells; type: toxicity, cell-based; conditions: read-out: Ratio CC50/EC50
[13] = Cytotoxicity against HEK293T cells assessed as reduction in cell viability measured after 48 hrs by MTT assay; type: toxicity, cell-based, HEK-293T; conditions: human
[14] = Selectivity index, ratio of CC50 for cytotoxicity against human Huh-7 cells to EC50 for antiviral activity against MERS-CoV KOR/KNIH/002_05_2015 infected in human Huh-7 cells assessed as inhibition of virus-induced cytopathic effect; type: toxicity, cell-based; conditions: read-out: Ratio CC50/EC50
[15] = Cytotoxicity against rhesus monkey LLC-MK2 cells assessed as reduction in cell viability by MTT-based cell viability assay; type: toxicity, Macaca mulatta
[16] = Selectivity index, ratio of CC50 for cytotoxicity against African green monkey Vero cells to EC50 for antiviral activity against SARS-CoV-2 infected in african green monkey Vero cells assessed as reduction in number of spike-protein expressing cells; type: toxicity, cell-based; conditions: read-out: Ratio CC50/EC50
[17] = Selectivity index, ratio of CC50 for cytotoxicity against rhesus monkey LLC-MK2 cells to EC50 for antiviral activity against HCoV-NL63 infected in rhesus monkey LLC-MK2 cells assessed as inhibition of virus-induced cytopathic effect; type: toxicity, cell-based; conditions: read-out: Ratio CC50/EC50
[18] = Selectivity index, ratio of CC50 for cytotoxicity against human Calu-3 cells to EC50 for antiviral activity against SARS-CoV-2 Omicron (hCoV-19/Korea/KDCA447321/2021) infected in human Calu-3 cells assessed as reduction in number of spike-protein expressing cells; type: toxicity, cell-based; conditions: read-out: Ratio CC50/EC50
[19] = Selectivity index, ratio of CC50 for cytotoxicity against human Calu-3 cells to EC50 for antiviral activity against SARS-CoV-2 Gamma (hCoV-19/Korea95637/KDCA/2021) infected in human Calu-3 cells assessed as reduction in number of spike-protein expressing cells; type: toxicity, cell-based; conditions: read-out: Ratio CC50/EC50

Compound: CCC(CC)COC(=O)[C@H](C)N[P@](=O)(OC[C@H]1O[C@@](C#N)(c2ccc3c(N)ncnn23)[C@H](O)[C@@H]1O)Oc1ccccc1
- selectivity ratio [1]: 14.2
- EC50 (Zaire ebolavirus): 180 nM
- EC50 (SARS-CoV-2 [2]): 1370 nM
- EC50 [3]: < 42 nM
- EC50 (SARS-CoV-2 [4]): 984 nM
- EC50 (Human coronavirus NL63): 140 nM
- CC50 [5]: 19.6 µM
- EC50 (SARS-CoV-2 [6]): 570 nM
- CC50 at 48 h [7]: > 100 µM
- EC50 (SARS-CoV-2 [8]): 4.83 µM
- CC50 at 48 h [9]: > 100 µM
- EC50 (SARS-CoV-2 [10]): 2400 nM
- selectivity ratio [11]: > 41.6
- selectivity ratio [12]: > 174
- CC50 at 48 h [13]: 2620 nM
- selectivity ratio [14]: > 348
- CC50 [15]: > 100 µM
- selectivity ratio [16]: > 20.7
- selectivity ratio [17]: > 702
- selectivity ratio [18]: > 24.7
- selectivity ratio [19]: > 73.1
